Source: the supplement of paper PMC11061612

Legend:
[1] = system: A375 (Melanoma); test: Bliss excess, mean over the matrix (fraction); higher = more synergy
In short: (§1)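 Cell lines in DMEM/F12 or RPMI with 10% FBS were plated in 1536-well plates, held 24 hours at 37°C, 5% CO2, then given two-drug dose matrices for 72 hours (DMSO typically 0.2%). Viability was read by CellTiter-Glo 2.0 luminescence and scaled as inhibition from 0 (vehicle wells) to 1 (blank wells). Combination Emax is the second-highest inhibition in the matrix; Bliss excess is observed combination effect minus expected EA + EB − EA·EB, EA and EB being single-agent effects.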

[2] = system: BC-1 (B-Cell Non-Hodgkin's Lymphoma); test: as above
In short: as §1

[3] = system: C32 (Melanoma); test: as above
In short: as §1

[4] = system: CAL-85-1 (Breast Carcinoma); test: as above
In short: as §1

[5] = system: COR-L105 (Lung Adenocarcinoma); test: as above
In short: as §1

[6] = system: GCIY (Gastric Carcinoma); test: as above
In short: as §1

[7] = system: KNS-62 (Squamous Cell Lung Carcinoma); test: as above
In short: as §1

[8] = system: L-363 (Plasma Cell Myeloma); test: as above
In short: as §1

[9] = system: MDA-MB-175-VII (Breast Carcinoma); test: as above
In short: as §1

[10] = system: MG-63 (Osteosarcoma); test: as above
In short: as §1

[11] = system: MRK-nu-1 (Breast Carcinoma); test: as above
In short: as §1

[12] = system: NCI-H1435 (Non-Small Cell Lung Carcinoma); test: as above
In short: as §1

[13] = system: NCI-H1648 (Lung Adenocarcinoma); test: as above
In short: as §1

[14] = system: NCI-H2009 (Lung Adenocarcinoma); test: as above
In short: as §1

[15] = system: NCI-H2023 (Non-Small Cell Lung Carcinoma); test: as above
In short: as §1

[16] = system: NCI-H2452 (Mesothelioma); test: as above
In short: as §1

[17] = system: NCI-H835 (Other Solid Carcinomas); test: as above
In short: as §1

[18] = system: NTERA-2-cl-D1 (Other Solid Carcinomas); test: as above
In short: as §1

[19] = system: OVKATE (Ovarian Carcinoma); test: as above
In short: as §1

[20] = system: RPMI-8402 (T-Lymphoblastic Leukemia); test: as above
In short: as §1

[21] = system: SBC-3 (Small Cell Lung Carcinoma); test: as above
In short: as §1

[22] = system: SK-MEL-24 (Melanoma); test: as above
In short: as §1

[23] = system: SW1463 (Colorectal Carcinoma); test: as above
In short: as §1

[24] = system: A375 (Melanoma); test: combination Emax (second highest fraction inhibited in the dose matrix, 72 h); higher = more inhibition; extreme values may be limits of the assay
In short: as §1

[25] = system: BC-1 (B-Cell Non-Hodgkin's Lymphoma); test: as above
In short: as §1

[26] = system: C32 (Melanoma); test: as above
In short: as §1

[27] = system: CAL-85-1 (Breast Carcinoma); test: as above
In short: as §1

[28] = system: COR-L105 (Lung Adenocarcinoma); test: as above
In short: as §1

[29] = system: GCIY (Gastric Carcinoma); test: as above
In short: as §1

[30] = system: KNS-62 (Squamous Cell Lung Carcinoma); test: as above
In short: as §1

[31] = system: L-363 (Plasma Cell Myeloma); test: as above
In short: as §1

[32] = system: MDA-MB-175-VII (Breast Carcinoma); test: as above
In short: as §1

[33] = system: MG-63 (Osteosarcoma); test: as above
In short: as §1

[34] = system: MRK-nu-1 (Breast Carcinoma); test: as above
In short: as §1

[35] = system: NCI-H1435 (Non-Small Cell Lung Carcinoma); test: as above
In short: as §1

[36] = system: NCI-H1648 (Lung Adenocarcinoma); test: as above
In short: as §1

[37] = system: NCI-H2009 (Lung Adenocarcinoma); test: as above
In short: as §1

[38] = system: NCI-H2023 (Non-Small Cell Lung Carcinoma); test: as above
In short: as §1

[39] = system: NCI-H2452 (Mesothelioma); test: as above
In short: as §1

[40] = system: NCI-H835 (Other Solid Carcinomas); test: as above
In short: as §1

[41] = system: NTERA-2-cl-D1 (Other Solid Carcinomas); test: as above
In short: as §1

[42] = system: OVKATE (Ovarian Carcinoma); test: as above
In short: as §1

[43] = system: RPMI-8402 (T-Lymphoblastic Leukemia); test: as above
In short: as §1

[44] = system: SBC-3 (Small Cell Lung Carcinoma); test: as above
In short: as §1

[45] = system: SK-MEL-24 (Melanoma); test: as above
In short: as §1

[46] = system: SW1463 (Colorectal Carcinoma); test: as above
In short: as §1
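For Bliss excess, mean over the matrix in this document: after 72 h of two-drug dosing.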

SMILES: C=CCn1c(=O)c2cnc(Nc3ccc(N4CCN(C)CC4)cc3)nc2n1-c1cccc(C(C)(C)O)n1 [AZD1775] + Nc1ccn([C@@H]2O[C@H](CO)[C@@H](O)C2(F)F)c(=O)n1 [Gemcitabine] (first compound max 1 µM, partner max 0.3 µM)
- Bliss excess [1]: 0.0519
- Bliss excess [2]: 0.0191
- Bliss excess [3]: -0.0569
- Bliss excess [4]: 0.0733
- Bliss excess [5]: -0.0263
- Bliss excess [6]: 0.0465
- Bliss excess [7]: 0.0179
- Bliss excess [8]: 0.125
- Bliss excess [9]: -0.0105
- Bliss excess [10]: 0.0581
- Bliss excess [11]: 0.045
- Bliss excess [12]: -0.0012
- Bliss excess [13]: -0.0038
- Bliss excess [14]: 0.0606
- Bliss excess [15]: 0.0248
- Bliss excess [16]: -0.0727
- Bliss excess [17]: -0.0789
- Bliss excess [18]: -0.062
- Bliss excess [19]: -0.0681
- Bliss excess [20]: 0.0141
- Bliss excess [21]: -0.0105
- Bliss excess [22]: 0.0069
- Bliss excess [23]: -0.0109
- combination Emax [24]: 0.966
- combination Emax [25]: 0.995
- combination Emax [26]: 0.701
- combination Emax [27]: 0.697
- combination Emax [28]: 0.428
- combination Emax [29]: 0.764
- combination Emax [30]: 0.561
- combination Emax [31]: 0.983
- combination Emax [32]: 0.456
- combination Emax [33]: 0.955
- combination Emax [34]: 0.688
- combination Emax [35]: 0.345
- combination Emax [36]: 0.643
- combination Emax [37]: 0.907
- combination Emax [38]: 0.656
- combination Emax [39]: 0.693
- combination Emax [40]: 0.476
- combination Emax [41]: 0.614
- combination Emax [42]: 0.261
- combination Emax [43]: 1
- combination Emax [44]: 0.949
- combination Emax [45]: 0.793
- combination Emax [46]: 0.763

SMILES: N#Cc1cnc(Nc2cc(NC[C@H]3CNCCO3)c(C(F)(F)F)cn2)cn1 [SRA737] + O=c1[nH]cc(F)c(=O)[nH]1 [5-Fluorouracil] (first compound max 10 µM, 7x7, partner max 20 µM)
- Bliss excess [1]: -0.0149
- Bliss excess [2]: -0.001
- Bliss excess [3]: -0.0343
- Bliss excess [4]: 0.0703
- Bliss excess [5]: -0.0048
- Bliss excess [6]: -0.0044
- Bliss excess [7]: 0.0235
- Bliss excess [8]: 0.0691
- Bliss excess [9]: -0.0189
- Bliss excess [10]: 0.0106
- Bliss excess [11]: 0.0291
- Bliss excess [12]: -0.0012
- Bliss excess [13]: -0.0515
- Bliss excess [14]: 0.0125
- Bliss excess [15]: 0.0353
- Bliss excess [16]: 0.0571
- Bliss excess [17]: 0.0621
- Bliss excess [18]: -0.0757
- Bliss excess [19]: -0.0286
- Bliss excess [20]: -0.0445
- Bliss excess [21]: -0.0447
- Bliss excess [22]: -0.0047
- Bliss excess [23]: -0.0006
- combination Emax [24]: 0.226
- combination Emax [25]: 0.739
- combination Emax [26]: 0.15
- combination Emax [27]: 0.555
- combination Emax [28]: 0.234
- combination Emax [29]: 0.505
- combination Emax [30]: 0.382
- combination Emax [31]: 0.934
- combination Emax [32]: 0.21
- combination Emax [33]: 0.492
- combination Emax [34]: 0.443
- combination Emax [35]: 0.164
- combination Emax [36]: 0.208
- combination Emax [37]: 0.444
- combination Emax [38]: 0.689
- combination Emax [39]: 0.513
- combination Emax [40]: 0.391
- combination Emax [41]: 0.464
- combination Emax [42]: 0.147
- combination Emax [43]: 1
- combination Emax [44]: 0.66
- combination Emax [45]: 0.314
- combination Emax [46]: 0.402
